Measured values taken from ChEMBL document CHEMBL1201862, “PubChem BioAssay data set” (2004).
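Results reflect a 48-hour exposure of cells in 96-well plates to compound at five concentrations. GI50: concentration for 50% inhibition of growth.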 Activity calls are given as the source filed them. No stated cut-off is given here; in the data, active = GI50 up to about 1.1 µM and inactive = higher.

Legend:
Experiment in all cases: inhibition of tumour cell growth, NCI panel, 48 h
MDA-MB-435 = tested on: MDA-MB-435
SF-268 = tested on: SF-268
EKVX = tested on: EKVX
A498 = tested on: A498
M14 = tested on: M14
SK-MEL-28 = tested on: SK-MEL-28
SF-295 = tested on: SF-295
HOP-92 = tested on: HOP-92
COLO 205 = tested on: COLO 205
HCT-15 = tested on: HCT-15
U-251 = tested on: U-251
SN12C = tested on: SN12C
MDA-MB-231 = tested on: MDA-MB-231
OVCAR-8 = tested on: OVCAR-8
LOX IMVI = tested on: LOX IMVI
MOLT-4 = tested on: MOLT-4
SR = tested on: SR
NCI-H522 = tested on: NCI-H522
HOP-62 = tested on: HOP-62
HCC 2998 = tested on: HCC 2998

Row | Structure (SMILES) | GI50 (MDA-MB-435) | GI50 (SF-268) | GI50 (EKVX) | GI50 (A498) | GI50 (M14) | GI50 (SK-MEL-28) | GI50 (SF-295) | GI50 (HOP-92) | GI50 (COLO 205) | GI50 (HCT-15) [µM] | GI50 (U-251) | GI50 (SN12C) | GI50 (MDA-MB-231) | GI50 (OVCAR-8) | GI50 (LOX IMVI) | GI50 (MOLT-4) | GI50 (SR) | GI50 (NCI-H522) | GI50 (HOP-62) | GI50 (HCC 2998)
1 | COC(=O)c1cc(C)n(CN(Cc2ccccc2)Cn2nc(C(=O)OC)cc2C)n1 | > 100 µM (inactive) | > 89.9 µM (inactive) | 66.5 µM (inactive) | > 100 µM (inactive) | > 100 µM (inactive) | > 81.5 µM (inactive) | > 79.8 µM (inactive) | > 73.5 µM (inactive) | > 46.9 µM (inactive) | > 40.7 | > 100 µM (inactive) | > 100 µM (inactive) | > 100 µM (inactive) | > 84.1 µM (inactive) | > 100 µM (inactive) | > 100 µM (inactive) | 0.873 µM (active) | > 100 µM (inactive) | > 100 µM (inactive) | 
2 | OCN(CO)c1ccc2c(c1)Cc1cc(F)ccc1-2 | 18.1 µM (inactive) | 23.8 µM (inactive) | 14.7 µM (inactive) |  | 21 µM (inactive) | 24 µM (inactive) | 15.3 µM (inactive) |  | 12.4 µM (inactive) | 19.2 | 17.9 µM (inactive) | 18.2 µM (inactive) | 16.4 µM (inactive) | 19.7 µM (inactive) | 17.9 µM (inactive) | 25.2 µM (inactive) | 22.6 µM (inactive) | 19.5 µM (inactive) | 44.1 µM (inactive) | 
3 | O=C(CCCN1CCC2(CC1)NC(=O)c1ccccc1O2)c1ccc(F)cc1 | > 100 µM (inactive) | > 100 µM (inactive) | > 100 µM (inactive) |  | 87.7 µM (inactive) | > 100 µM (inactive) | > 100 µM (inactive) | > 100 µM (inactive) | 50.1 µM (inactive) | > 100 | > 100 µM (inactive) | > 100 µM (inactive) | > 100 µM (inactive) | > 100 µM (inactive) | 80 µM (inactive) | 50.1 µM (inactive) | 57 µM (inactive) | > 100 µM (inactive) | > 100 µM (inactive) | > 100 µM (inactive)
4 | Cn1c(=O)c2nc(CCS)[nH]c2n(C)c1=O | > 100 µM (inactive) | 35.6 µM (inactive) | > 100 µM (inactive) | > 100 µM (inactive) | > 100 µM (inactive) | > 100 µM (inactive) | > 100 µM (inactive) | > 100 µM (inactive) | > 100 µM (inactive) | > 100 | > 100 µM (inactive) | > 100 µM (inactive) | > 100 µM (inactive) | > 100 µM (inactive) | > 100 µM (inactive) | > 100 µM (inactive) | > 100 µM (inactive) | > 100 µM (inactive) | 54.3 µM (inactive) | 
5 | Clc1cc(Cl)cc(C2ON=C(c3ccccc3)N2C23CC4CC(CC(C4)C2)C3)c1 (centres undefined) | > 10 µM (inactive) | > 10 µM (inactive) | > 10 µM (inactive) | > 10 µM (inactive) | > 10 µM (inactive) | > 10 µM (inactive) | > 10 µM (inactive) | 0.643 µM (active) | > 10 µM (inactive) | > 10 | > 10 µM (inactive) | > 10 µM (inactive) | > 10 µM (inactive) | > 10 µM (inactive) | > 10 µM (inactive) | > 10 µM (inactive) |  | > 10 µM (inactive) | > 10 µM (inactive) | > 10 µM (inactive)
6 | Oc1ccc(Cl)cc1-c1cc(-c2ccccc2)nc(S)n1 | > 100 µM (inactive) | 27.3 µM (inactive) | 4.52 µM (inactive) | 41.6 µM (inactive) | > 100 µM (inactive) | > 100 µM (inactive) | 28.6 µM (inactive) | 19.2 µM (inactive) | > 100 µM (inactive) | 94 | 17.4 µM (inactive) | 93.1 µM (inactive) | 30.5 µM (inactive) | > 100 µM (inactive) | > 100 µM (inactive) | > 100 µM (inactive) |  | > 100 µM (inactive) | 22.6 µM (inactive) | > 100 µM (inactive)
7 | O=C(O)c1ccc(/C=N\N(CCO)C2=NCCN2)cc1 | > 100 µM (inactive) | > 100 µM (inactive) | > 100 µM (inactive) |  | > 100 µM (inactive) | > 100 µM (inactive) | > 100 µM (inactive) | > 100 µM (inactive) | > 100 µM (inactive) | > 100 | > 100 µM (inactive) | > 100 µM (inactive) | > 100 µM (inactive) | > 100 µM (inactive) | > 100 µM (inactive) | > 100 µM (inactive) | > 100 µM (inactive) |  | > 100 µM (inactive) | > 100 µM (inactive)
8 | N#C/C(=C\c1ccc(Cl)cc1)c1nc(-c2cc3ccccc3oc2=O)cs1 | > 100 µM (inactive) | 34.8 µM (inactive) | > 100 µM (inactive) |  | 51.5 µM (inactive) | 95.9 µM (inactive) | 44.4 µM (inactive) | 15.7 µM (inactive) | > 100 µM (inactive) | > 100 | 30.8 µM (inactive) | 70.3 µM (inactive) | 22 µM (inactive) | 49.2 µM (inactive) | 59.6 µM (inactive) | > 100 µM (inactive) | > 100 µM (inactive) | 15.6 µM (inactive) | 24.8 µM (inactive) | 57.5 µM (inactive)
9 | COc1ccc2nc3n(c2c1)C(c1c(F)cccc1F)SC3 (centres undefined) | 39.1 µM (inactive) | 29 µM (inactive) | 18.9 µM (inactive) | 95.3 µM (inactive) | > 100 µM (inactive) | > 100 µM (inactive) | 38.6 µM (inactive) | 51.1 µM (inactive) | > 100 µM (inactive) | 43.2 | 51.8 µM (inactive) | > 100 µM (inactive) | > 100 µM (inactive) | 36.6 µM (inactive) | 47.3 µM (inactive) | 32.4 µM (inactive) | 37.9 µM (inactive) |  | 61.7 µM (inactive) | 78 µM (inactive)
10 | CC(C)(C)[Si](C)(C)OCC1OC(n2ccc(=O)[nH]c2=O)C(O[Si](C)(C)C(C)(C)C)/C1=N/O (centres undefined) | 3.11 µM (inactive) |  | 4.13 µM (inactive) | 4.97 µM (inactive) | 3.33 µM (inactive) | 3.3 µM (inactive) | 4.74 µM (inactive) | 2.77 µM (inactive) | 2.42 µM (inactive) | 3.26 | 4.25 µM (inactive) | 3.3 µM (inactive) | 12.4 µM (inactive) | 3.33 µM (inactive) | 4.67 µM (inactive) | 2.43 µM (inactive) | 2.71 µM (inactive) |  | 4.63 µM (inactive) | 3.37 µM (inactive)
11 | COc1ccc(C(=O)N2CCN(c3ccc4c(c3)OCC(=O)N4)CC2)cc1 | > 100 µM (inactive) | > 100 µM (inactive) | 94 µM (inactive) |  | > 100 µM (inactive) | > 100 µM (inactive) | > 100 µM (inactive) | > 100 µM (inactive) | > 100 µM (inactive) | > 100 | > 100 µM (inactive) | > 100 µM (inactive) | > 100 µM (inactive) | > 100 µM (inactive) | > 100 µM (inactive) | > 100 µM (inactive) | 67.3 µM (inactive) | 95.9 µM (inactive) | > 100 µM (inactive) | > 100 µM (inactive)
12 | COC(=O)c1c(O)ccc2c1c1c(n2Cc2ccc(Cl)cc2Cl)C(=O)c2ccccc2C1 | 45.1 µM (inactive) | 32.5 µM (inactive) |  | > 100 µM (inactive) | 89.1 µM (inactive) | 45.2 µM (inactive) |  |  | 45.7 µM (inactive) | 42.7 | 38 µM (inactive) | 23.1 µM (inactive) | 69.7 µM (inactive) | 37.8 µM (inactive) | 27 µM (inactive) | 39.1 µM (inactive) | 36.3 µM (inactive) |  | > 100 µM (inactive) | 
13 | CCNc1cc2oc(=O)cc(C(F)(F)F)c2cc1C | > 100 µM (inactive) | > 100 µM (inactive) | 31.3 µM (inactive) | > 100 µM (inactive) | > 100 µM (inactive) | > 100 µM (inactive) | > 100 µM (inactive) | 64.4 µM (inactive) | > 100 µM (inactive) | > 100 | > 100 µM (inactive) | > 100 µM (inactive) | > 100 µM (inactive) | > 100 µM (inactive) | > 100 µM (inactive) | > 100 µM (inactive) |  | > 100 µM (inactive) | > 100 µM (inactive) | > 100 µM (inactive)
14 | C[n+]1cn(C2=C([N-]S(=O)(=O)c3ccccc3)C(=O)c3ccccc3C2=O)c2ccccc21 | 2.79 µM (inactive) | 31.6 µM (inactive) | > 100 µM (inactive) |  | 16.5 µM (inactive) | 36.1 µM (inactive) | 61.4 µM (inactive) | 42.1 µM (inactive) | 2.85 µM (inactive) | > 100 | 19.3 µM (inactive) | 31.3 µM (inactive) | 20.1 µM (inactive) | 20 µM (inactive) | 12.7 µM (inactive) | 23.2 µM (inactive) | 44.6 µM (inactive) | 11.9 µM (inactive) | 47.9 µM (inactive) | 18.9 µM (inactive)
15 | Clc1c(Cl)c(Cl)c2nn(C3CCCO3)nc2c1Cl (centres undefined) | 44.3 µM (inactive) | 46.6 µM (inactive) | 19.5 µM (inactive) | > 100 µM (inactive) | > 100 µM (inactive) |  | 39.4 µM (inactive) |  | 55.6 µM (inactive) |  | 41.4 µM (inactive) | 46.5 µM (inactive) | 76.7 µM (inactive) | 63.5 µM (inactive) |  | 30.5 µM (inactive) | 52.6 µM (inactive) | 37.3 µM (inactive) | 28.1 µM (inactive) | 91 µM (inactive)
